The term solubility denotes the concentration that dissolves in the medium under given conditions. Usually IC50 stands for the concentration at which inhibition is half-maximal. One may read the EC50 as the concentration needed to bring the measured effect to its halfway point.

Data on three compounds can be found in ChEMBL document CHEMBL4420076, “Amylin and calcitonin receptor agonist” (2017).

Data set [1] is described as follows: Solubility in 100 mM bistrispropane buffer at pH 6.5 incubated for 18 hrs by UPLC analysis. It is filed as physicochemical.
Data set [2] can be described thus: Stability in pH 7.5 buffer assessed as lag time for fibril formation at 1 uM by Thioflavin T based fluorescence assay. Format: physicochemical. Conditions: pH 7.5, 1 µM.
Data set [3] can be described thus: Solubility in 100 mM glycylglycine buffer at pH 3.0 incubated for 18 hrs by UPLC analysis. Format: physicochemical.
Data set [4] can be described thus: Stability in pH 7.5 buffer assessed as compound recovery at 1 uM by Thioflavin T based fluorescence assay. It is filed as physicochemical. The conditions noted are these: read-out: Drug recovery.
Data set [5] is described as follows: Solubility in 100 mM bistrispropane buffer at pH 8.0 incubated for 18 hrs by UPLC analysis. Format: physicochemical.
In data set [6] the target is T1, Amylin receptor AMY3; CALCR/RAMP3 (Rattus norvegicus, UniProt P32214+Q9JJ73).
T1 sequence (P32214 whole entry): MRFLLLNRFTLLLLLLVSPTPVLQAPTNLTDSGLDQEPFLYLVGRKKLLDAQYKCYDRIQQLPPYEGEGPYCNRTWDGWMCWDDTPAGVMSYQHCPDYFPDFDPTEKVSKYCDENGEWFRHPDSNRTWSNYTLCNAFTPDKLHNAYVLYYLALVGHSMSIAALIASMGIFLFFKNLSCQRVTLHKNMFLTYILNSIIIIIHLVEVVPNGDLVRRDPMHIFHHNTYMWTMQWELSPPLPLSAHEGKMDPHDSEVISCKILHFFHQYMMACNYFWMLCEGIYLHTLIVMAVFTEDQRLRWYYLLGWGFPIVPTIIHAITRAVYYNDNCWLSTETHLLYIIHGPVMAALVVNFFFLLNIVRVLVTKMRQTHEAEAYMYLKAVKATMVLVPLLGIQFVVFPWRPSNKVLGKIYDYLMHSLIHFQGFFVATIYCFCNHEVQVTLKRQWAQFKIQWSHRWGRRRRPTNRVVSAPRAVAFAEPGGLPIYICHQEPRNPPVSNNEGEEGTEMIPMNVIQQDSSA
T1 sequence (Q9JJ73 whole entry): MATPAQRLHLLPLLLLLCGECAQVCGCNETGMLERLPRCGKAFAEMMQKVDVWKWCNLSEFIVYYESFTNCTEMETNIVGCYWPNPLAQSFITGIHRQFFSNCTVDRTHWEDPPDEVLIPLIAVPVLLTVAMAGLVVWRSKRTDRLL
As to the kind of experiment: Displacement of [125I]-labeled rat amylin from rat amylin receptor expressed in BHK tkts13 cell membranes co-expressing RAMP3 incubated for 120 mins by scintillation proximity assay. (In general: Loss of bound radioactivity is the signal in a displacement assay; it reports binding, not function.)

Data set [7] deals with T2, Calcitonin receptor (Homo sapiens, UniProt P30988).
T2 sequence (P30988 whole entry): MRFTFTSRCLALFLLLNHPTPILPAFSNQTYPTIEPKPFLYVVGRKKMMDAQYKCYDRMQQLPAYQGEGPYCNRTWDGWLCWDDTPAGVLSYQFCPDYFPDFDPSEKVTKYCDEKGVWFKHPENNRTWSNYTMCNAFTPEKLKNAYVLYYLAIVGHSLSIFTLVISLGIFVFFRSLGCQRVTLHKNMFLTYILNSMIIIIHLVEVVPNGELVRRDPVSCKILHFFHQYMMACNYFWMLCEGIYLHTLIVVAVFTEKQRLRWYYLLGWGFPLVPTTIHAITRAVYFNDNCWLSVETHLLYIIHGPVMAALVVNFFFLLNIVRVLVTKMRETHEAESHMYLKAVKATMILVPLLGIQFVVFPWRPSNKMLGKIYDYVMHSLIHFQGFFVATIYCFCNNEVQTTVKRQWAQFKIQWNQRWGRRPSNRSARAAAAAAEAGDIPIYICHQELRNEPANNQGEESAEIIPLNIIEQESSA
As to the kind of experiment: Agonist activity at human calcitonin receptor expressed in BHK570 cells assessed as increase in intracellular cAMP concentration incubated for 3 hrs in presence of 10% FBS by CRE luciferase reporter gene assay. It is filed as functional, cell-based. On the technique in general: In a reporter assay the amount or activity of a reporter protein is the signal.

The nature of data set [8]: Solubility in 100 mM bistrispropane buffer at pH 7.5 incubated for 18 hrs by UPLC analysis. It is filed as physicochemical.
Data set [9] deals with Rattus norvegicus. As to the kind of experiment: Reduction in food intake in Sprague-Dawley rat at 3 nmol/kg measured 24 to 48 hrs post dose relative to control. Format: functional. Set-up: scale not given: the % may be the effect or the level left.
Data set [10] in a line: Solubility in 100 mM glycylglycine buffer at pH 4.0 incubated for 18 hrs by UPLC analysis. It is filed as physicochemical.
Data set [11] is described as follows: Solubility in 100 mM bistrispropane buffer at pH 7.0 incubated for 18 hrs by UPLC analysis. Format: physicochemical.
Data set [12] deals with T3, Amylin receptor AMY3; CALCR/RAMP3 (Homo sapiens, UniProt O60896+P30988).
T3 sequence (P30988 whole entry): T2 sequence (P30988 whole entry)
T3 sequence (O60896 whole entry): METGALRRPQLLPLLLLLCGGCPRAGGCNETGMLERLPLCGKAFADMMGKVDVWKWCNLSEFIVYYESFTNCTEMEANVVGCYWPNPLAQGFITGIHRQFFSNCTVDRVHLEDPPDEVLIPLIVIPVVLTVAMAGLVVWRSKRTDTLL
Briefly: Agonist activity at human amylin receptor expressed in BHK570 cells co-expressing RAMP3 assessed as increase in intracellular cAMP concentration incubated for 3 hrs in presence of 10% FBS by CRE luciferase reporter gene assay. Format: functional, cell-based.

The target in data set [13] is T3, Amylin receptor AMY3; CALCR/RAMP3. As to the kind of experiment: Displacement of [125I]-labeled rat amylin from human amylin receptor expressed in BHK570 cell membranes co-expressing RAMP3 incubated for 120 mins by scintillation proximity assay.
Data set [14] can be described thus: Solubility in 100 mM bistrispropane buffer at pH 6.0 incubated for 18 hrs by UPLC analysis. It is filed as physicochemical.
Data set [15] deals with T2, Calcitonin receptor. Briefly: Agonist activity at human calcitonin receptor expressed in BHK570 cells assessed as increase in intracellular cAMP concentration incubated for 3 hrs in absence of albumin by CRE luciferase reporter gene assay. It is filed as functional, cell-based.
Data set [16] concerns Rattus norvegicus. As to the kind of experiment: Reduction in food intake in Sprague-Dawley rat at 3 nmol/kg measured 0 to 24 hrs post dose relative to control. Format: functional. Also on record: scale not given: the % may be the effect or the level left.
A short description of data set [17]: Solubility in 100 mM glycylglycine buffer at pH 5.0 incubated for 18 hrs by UPLC analysis. Format: physicochemical.
The target of data set [18] is T2, Calcitonin receptor. As to the kind of experiment: Displacement of [125I]-labeled human calcitonin from human calcitonin receptor expressed in BHK tkts13 cell membranes incubated for 1 hr by scintillation proximity assay.
Data set [19] concerns the target T3, Amylin receptor AMY3; CALCR/RAMP3. Briefly: Agonist activity at human amylin receptor expressed in BHK570 cells co-expressing RAMP3 assessed as increase in intracellular cAMP concentration incubated for 3 hrs in absence of albumin by CRE luciferase reporter gene assay. It is filed as functional, cell-based.

Numbered stars: 1 amine (or outer) side, 2 acyl side, 3 side chain; on linkers, the order of the positions; unused ones are H or OH. Square brackets hold non-standard residues; d marks the D form. Peptide text beside a SMILES is read from it. * marks the point of attachment. C20 diacid = O=C(O)CCCCCCCCCCCCCCCCCCC(=O)*; γGlu = O=C(O)[C@H](CCC(=O)[*:2])N[*:1]; AEEA = NCCOCCOCC(=O)O

Regarding `CC(C)C[C@H](NC(=O)CNC(=O)[C@H](CO)NC(=O)[C@H](C)NC(=O)COCCOCCNC(=O)COCCOCCNC(=O)CC[C@H](NC(=O)CCCCCCCCCCCCCCCCCCC(=O)O)C(=O)O)C(=O)N[C@@H](CO)C(=O)N[C@H](C(=O)N[C@@H](C)C(=O)N[C@H](C(=O)N[C@@H](CC(C)C)C(=O)NCC(=O)N[C@@H](CCCNC(=N)N)C(=O)N[C@@H](CC(C)C)C(=O)N[C@@H](CO)C(=O)N[C@@H](CCC(N)=O)C(=O)N[C@@H](CCC(=O)O)C(=O)N[C@@H](CC(C)C)C(=O)N[C@@H](Cc1cnc[nH]1)C(=O)N[C@@H](CCC(=O)O)C(=O)N[C@@H](CC(C)C)C(=O)N[C@@H](CCC(N)=O)C(=O)N[C@H](C(=O)N[C@@H](Cc1ccc(O)cc1)C(=O)N1CCC[C@H]1C(=O)N[C@@H](CCCNC(=N)N)C(=O)N[C@H](C(=O)N[C@@H](CCC(=O)O)C(=O)N[C@H](C(=O)NCC(=O)N[C@@H](CO)C(=O)NCC(=O)N[C@H](C(=O)N[C@@H](Cc1ccc(O)cc1)C(N)=O)[C@@H](C)O)[C@@H](C)O)[C@@H](C)O)[C@@H](C)O)C(C)C)[C@@H](C)O`, the solubility at 18 h in [1], in data set [3], in [5], in data set [8], in data set [10] and in data set [11] was not below 200 µM throughout. In data set [14], this compound yielded a solubility at 18 h not below 200 µM. In addition, the Time in data set [2] is more than 45 h. For the same compound, in data set [4], the remaining at 1 µM worked out at 100%. For the same compound, the IC50 in data set [6] is 0.029 nM; in [13], 0.166 nM. Further, the concentration for a half-maximal effect (EC50) at Calcitonin receptor [7] was 0.068 nM; in data set [12] it was 0.123 nM; on Calcitonin receptor [15], 0.052 nM. For the same compound, the Activity with Rattus norvegicus [9] amounted to 19%; in the data set with Rattus norvegicus [16] it was 22%.
In the case of `CC(C)C[C@H](NC(=O)[C@H](C)NC(=O)[C@H](C)NC(=O)[C@@H](NC(=O)[C@H](CO)NC(=O)[C@H](CC(C)C)NC(=O)[C@H](CCC(=O)O)NC(=O)[C@H](CO)NC(=O)[C@H](C)NC(=O)COCCOCCNC(=O)COCCOCCNC(=O)CC[C@H](NC(=O)CCCCCCCCCCCCCCCCCCC(=O)O)C(=O)O)[C@@H](C)O)C(=O)NCC(=O)N[C@@H](CCCNC(=N)N)C(=O)N[C@@H](CC(C)C)C(=O)N[C@@H](CO)C(=O)N[C@@H](C)C(=O)N[C@@H](CCC(=O)O)C(=O)N[C@@H](CC(C)C)C(=O)N[C@@H](Cc1cnc[nH]1)C(=O)N[C@@H](CCC(=O)O)C(=O)N[C@@H](CC(C)C)C(=O)N[C@@H](C)C(=O)N[C@H](C(=O)N[C@@H](CC(C)C)C(=O)N1CCC[C@H]1C(=O)N[C@@H](CCCNC(=N)N)C(=O)N[C@H](C(=O)N[C@@H](CCC(=O)O)C(=O)N[C@H](C(=O)NCC(=O)N[C@@H](CO)C(=O)NCC(=O)N[C@@H](CO)C(=O)N1CCC[C@H]1C(N)=O)[C@@H](C)O)[C@@H](C)O)[C@@H](C)O` ({C20 diacid-γGlu-AEEA-AEEA}-ASELSTAALGRLSAELHELATLPRTETGSGSP-NH2), the solubility at 18 h in data set [1], in data set [17], in data set [3], in data set [5], in data set [8] and in data set [10] was not below 200 µM each time. The solubility at 18 h in data set [11] and in data set [14] was not below 200 µM each time. In addition, in data set [2], the Time is more than 45 h. Moreover, the remaining at 1 µM in [4] came out at 100%. Further, the EC50 is 0.035 nM on Calcitonin receptor [7], 0.017 nM in data set [19], 0.067 nM in [12] and 0.012 nM at Calcitonin receptor [15]. Further, the 50% inhibitory concentration (IC50) on Calcitonin receptor [18] is 0.05 nM; in [13], 0.159 nM.
`CC(C)C[C@H](NC(=O)[C@H](C)NC(=O)[C@H](C)NC(=O)[C@@H](NC(=O)[C@H](CO)NC(=O)[C@H](CC(C)C)NC(=O)[C@H](CCC(=O)O)NC(=O)[C@H](CO)NC(=O)[C@H](C)NC(=O)CC[C@H](NC(=O)CCCCCCCCCCCCCCCCCCC(=O)O)C(=O)O)[C@@H](C)O)C(=O)NCC(=O)N[C@@H](CCCNC(=N)N)C(=O)N[C@@H](CC(C)C)C(=O)N[C@@H](CO)C(=O)N[C@H](CCC(=O)O)C(=O)N[C@@H](CCC(=O)O)C(=O)N[C@@H](CC(C)C)C(=O)N[C@@H](Cc1cnc[nH]1)C(=O)N[C@@H](CCC(=O)O)C(=O)N[C@@H](CC(C)C)C(=O)N[C@@H](C)C(=O)N[C@H](C(=O)N[C@@H](CC(C)C)C(=O)N1CCC[C@H]1C(=O)N[C@@H](CCCNC(=N)N)C(=O)N[C@H](C(=O)N[C@@H](CCC(=O)O)C(=O)N[C@H](C(=O)NCC(=O)N[C@@H](CO)C(=O)NCC(=O)N[C@@H](CO)C(=O)N1CCC[C@H]1C(N)=O)[C@@H](C)O)[C@@H](C)O)[C@@H](C)O` ({C20 diacid-γGlu}-ASELSTAALGRLS[dE]ELHELATLPRTETGSGSP-NH2): the solubility at 18 h in data set [1], in data set [17], in data set [3], in data set [5], in [8] and in data set [10] was not below 200 µM throughout. The solubility at 18 h in data set [11] and in data set [14] was not below 200 µM each time. Besides, the EC50 was 0.023 nM on Calcitonin receptor [7], 0.02 nM in data set [19], 0.094 nM in data set [12] and 0.014 nM on Calcitonin receptor [15]. Moreover, the IC50 at Calcitonin receptor [18] is 0.022 nM; in data set [13] it was 0.029 nM.
